The source made the active and inactive calls. No cut-off for these calls is given here.
Experiments:
Nociceptin receptor [1] = target: T1, Nociceptin receptor (Homo sapiens, UniProt P41146); experiment: Displacement of [125I][Tyr14]nociceptin from human cloned ORL1 receptor expressed in CHO cells; type: cell-based
[2] = target: T2, Nuclear receptor subfamily 1 group I member 2 (Homo sapiens, UniProt O75469); experiment: Activity at PXR in human hepatocytes assessed as induction of CYP3A4 activity at 1 uM relative rifampicin; type: cell-based, Hepatocyte
T2 sequence (O75469 whole entry): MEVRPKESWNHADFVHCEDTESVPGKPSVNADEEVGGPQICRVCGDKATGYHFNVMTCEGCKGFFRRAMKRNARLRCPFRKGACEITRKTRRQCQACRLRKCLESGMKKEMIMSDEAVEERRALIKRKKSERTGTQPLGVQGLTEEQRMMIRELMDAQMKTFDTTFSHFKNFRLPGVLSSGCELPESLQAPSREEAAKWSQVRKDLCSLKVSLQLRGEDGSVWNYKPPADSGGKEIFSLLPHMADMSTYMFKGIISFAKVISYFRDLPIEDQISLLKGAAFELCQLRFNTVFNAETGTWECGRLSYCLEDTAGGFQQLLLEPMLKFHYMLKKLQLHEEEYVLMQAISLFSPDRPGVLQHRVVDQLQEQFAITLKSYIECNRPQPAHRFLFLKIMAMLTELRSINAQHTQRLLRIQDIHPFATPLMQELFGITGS

Homo sapiens = species: Homo sapiens; experiment: Selectivity for human cloned ORL1 receptor over human mu opioid receptor
Mu-type opioid receptor [3] = target: T3, Mu-type opioid receptor (Homo sapiens, UniProt P35372); experiment: Displacement of [3H]diprenorphine from human mu opioid receptor expressed in CHO cells; type: cell-based
T3 sequence (P35372 whole entry): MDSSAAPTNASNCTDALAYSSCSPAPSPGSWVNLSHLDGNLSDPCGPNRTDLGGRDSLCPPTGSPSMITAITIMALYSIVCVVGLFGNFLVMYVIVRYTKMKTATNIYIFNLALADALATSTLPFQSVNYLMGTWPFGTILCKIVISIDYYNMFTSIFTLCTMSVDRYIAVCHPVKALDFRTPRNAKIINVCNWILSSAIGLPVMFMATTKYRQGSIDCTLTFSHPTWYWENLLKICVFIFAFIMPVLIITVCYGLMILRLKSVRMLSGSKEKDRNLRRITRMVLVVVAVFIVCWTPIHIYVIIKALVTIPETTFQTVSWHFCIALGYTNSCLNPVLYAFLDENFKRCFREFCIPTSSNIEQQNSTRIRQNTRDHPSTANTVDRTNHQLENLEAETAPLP

Mu-type opioid receptor [4] = target: T3, Mu-type opioid receptor; experiment: Agonist activity at human mu opioid receptor assessed as stimulation of GTPgammaS binding at 5.5 uM; type: functional
Mu-type opioid receptor [5] = target: T3, Mu-type opioid receptor; experiment: Agonist activity at human mu opioid assessed as stimulation of GTPgammaS binding; type: functional
Nociceptin receptor [6] = target: T1, Nociceptin receptor; experiment: Agonist activity at human cloned ORL1 receptor assessed as stimulation of GTPgammaS binding; type: functional
Nociceptin receptor [7] = target: T1, Nociceptin receptor; experiment: Agonist activity at human cloned ORL1 receptor assessed as stimulation of GTPgammaS binding at 5.5 uM; type: functional
Nociceptin receptor [8] = target: T1, Nociceptin receptor; experiment: Agonist activity at human cloned ORL1 receptor assessed as stimulation of GTPgammaS binding at 10 uM; type: functional
Mu-type opioid receptor [9] = target: T3, Mu-type opioid receptor; experiment: Agonist activity at human mu opioid receptor assessed as stimulation of GTPgammaS binding at 10 uM; type: functional
[10] = target: Kappa-type opioid receptor (Homo sapiens, UniProt P41145); experiment: Displacement of [3H]diprenorphine from human kappa opioid receptor expressed in CHO cells; type: cell-based
Chain of Kappa-type opioid receptor (P41145 whole entry): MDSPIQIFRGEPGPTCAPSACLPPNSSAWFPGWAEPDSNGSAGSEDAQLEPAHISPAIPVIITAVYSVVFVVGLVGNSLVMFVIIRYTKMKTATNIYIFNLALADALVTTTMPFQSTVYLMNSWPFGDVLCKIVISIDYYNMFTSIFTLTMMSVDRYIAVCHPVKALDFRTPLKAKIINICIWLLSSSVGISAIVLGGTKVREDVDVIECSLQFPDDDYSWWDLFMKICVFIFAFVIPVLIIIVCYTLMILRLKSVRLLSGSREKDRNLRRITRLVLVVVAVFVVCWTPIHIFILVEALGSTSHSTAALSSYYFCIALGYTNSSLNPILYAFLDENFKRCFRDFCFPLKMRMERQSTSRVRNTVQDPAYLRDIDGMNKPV

[11] = Ratio of ED50 for antitussive activity in guinea pig GPPV model to ED50 for anxiolytic like activity in rat; type: functional
Rattus norvegicus = species: Rattus norvegicus; experiment: Anxiolytic like activity in rat assessed as conditioned lick suppression after 2 hrs; type: functional
Cavia porcellus [12] = experiment: Antitussive activity in po dosed guinea pig GPPV model assessed as reduction of capsaicin-induced coughing after 2 hrs administered 15 mins before capsaicin challenge; type: functional
Cavia porcellus [13] = species: Cavia porcellus; experiment: Anxiolytic like activity in guinea pig assessed as reduction in number of vocalization produced due to separation measured after 2 hrs; type: functional
[14] = target: Delta-type opioid receptor (Homo sapiens, UniProt P41143); experiment: Displacement of [3H]diprenorphine from human delta opioid receptor expressed in CHO cells; type: cell-based
Chain of Delta-type opioid receptor (P41143 whole entry): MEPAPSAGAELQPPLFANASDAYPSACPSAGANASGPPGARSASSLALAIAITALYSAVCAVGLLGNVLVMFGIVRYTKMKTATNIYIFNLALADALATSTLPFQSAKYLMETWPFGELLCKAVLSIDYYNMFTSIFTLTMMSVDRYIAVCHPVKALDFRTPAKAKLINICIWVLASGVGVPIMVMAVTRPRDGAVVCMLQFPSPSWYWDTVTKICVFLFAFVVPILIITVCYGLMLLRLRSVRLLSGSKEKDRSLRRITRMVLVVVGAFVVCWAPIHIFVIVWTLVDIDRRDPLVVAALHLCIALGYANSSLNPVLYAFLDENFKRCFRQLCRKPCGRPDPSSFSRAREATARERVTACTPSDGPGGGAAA

Cavia porcellus [15] = experiment: Antitussive activity in guinea pig GPPV model assessed as reduction of capsaicin-induced coughing at 0.3 mg/kg, po after 2 hrs administered 15 mins before capsaicin challenge; type: functional; design: scale not given: the % may be the effect or the level left
Cavia porcellus [16] = experiment: Anxiolytic like activity in guinea pig assessed as reduction in number of vocalization produced due to separation measured at 3 mg/kg, po after 2 hrs; type: functional, organism-based; design: dose 3 mg/kg

T1 sequence (P41146 whole entry): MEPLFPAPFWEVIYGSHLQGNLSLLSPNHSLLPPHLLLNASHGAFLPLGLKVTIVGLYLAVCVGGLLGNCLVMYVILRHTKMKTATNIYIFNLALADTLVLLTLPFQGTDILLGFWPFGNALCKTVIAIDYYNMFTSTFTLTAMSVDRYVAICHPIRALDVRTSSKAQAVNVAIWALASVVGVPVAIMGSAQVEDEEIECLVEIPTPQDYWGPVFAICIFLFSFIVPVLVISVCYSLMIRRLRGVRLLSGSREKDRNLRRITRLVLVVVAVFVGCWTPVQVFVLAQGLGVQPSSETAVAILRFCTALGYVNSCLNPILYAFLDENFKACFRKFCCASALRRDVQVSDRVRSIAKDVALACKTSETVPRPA

Row | SMILES | Ki (Nociceptin receptor [1]) | Ratio [2] | fold change (FC) (Homo sapiens) | Ki (Mu-type opioid receptor [3]) | also measured
1 | COC(=O)NC1(c2ccc(F)cn2)C[C@H]2CC[C@H](C1)N2C(c1ccccc1Cl)c1ccccc1Cl (relative stereo) | 12 nM | 1.38 | 74 | 887 nM | –
2 | NC(=O)[C@]1(c2nc(F)ccc2F)C[C@H]2CC[C@@H](C1)N2C(c1ccccc1Cl)c1ccccc1Cl | 16 nM | 0.83 | – | – | –
3 | COC(=O)c1ccc([C@@]2(C(N)=O)C[C@H]3CC[C@@H](C2)N3C(c2ccccc2Cl)c2ccccc2Cl)nc1 | > 1000 nM | – | 4 | – | –
4 | NC(=O)C[C@]1(Cc2ccc(O)cc2)C[C@H]2CC[C@@H](C1)N2C(c1ccccc1Cl)c1ccccc1Cl | 17 nM | 0.51 | – | – | –
5 | COC(=O)N[C@]1(Cc2ccc(Cl)cc2)C[C@H]2CC[C@@H](C1)N2C(c1ccccc1Cl)c1ccccc1Cl | 56 nM | 1.1 | – | – | Activity (Mu-type opioid receptor [4]): 59%; EC50 (Mu-type opioid receptor [5]): 1560 nM; EC50 (Nociceptin receptor [6]): 14 nM; Activity (Nociceptin receptor [7]): 85%
6 | CC(=O)N[C@]1(c2ccccn2)C[C@H]2CC[C@@H](C1)N2C(c1ccccc1Cl)c1ccccc1Cl | 6 nM | 1.97 | 52 | 312 nM | Activity (Nociceptin receptor [8]): 84%; EC50 (Mu-type opioid receptor [5]): 1930 nM; EC50 (Nociceptin receptor [6]): 19 nM; Activity (Mu-type opioid receptor [9]): 68%
7 | NC(=O)[C@]1(c2ccc(O)cn2)C[C@H]2CC[C@@H](C1)N2C(c1ccccc1Cl)c1ccccc1Cl | 72 nM | – | 4 | – | –
8 | NC(=O)[C@]1(c2ncc(F)cc2F)C[C@H]2CC[C@@H](C1)N2C(c1ccccc1Cl)c1ccccc1Cl | 47 nM | – | – | – | –
9 | CC(=O)N[C@]1(c2ccc(F)cn2)C[C@H]2CC[C@@H](C1)N2C(c1ccccc1Cl)c1ccccc1Cl | 10 nM | 1.47 | 60 | 601 nM | –
10 | NC(=O)[C@]1(c2cc(CF)c(F)cn2)C[C@H]2CC[C@@H](C1)N2C(c1ccccc1Cl)c1ccccc1Cl | 19 nM | 0.77 | – | 367 nM | –
11 | NC(=O)[C@]1(c2ccccn2)C[C@H]2CC[C@@H](C1)N2C(c1ccccc1Cl)c1ccccc1Cl | 4 nM | 0.79 | – | 52 nM | –
12 | NC(=O)C1(C2CCCCN2)C[C@H]2CC[C@H](C1)N2C(c1ccccc1Cl)c1ccccc1Cl (relative stereo) | 17 nM | – | – | 474 nM | –
13 | NC(=O)[C@]1(c2ccc(F)cn2)C[C@H]2CC[C@@H](C1)N2C(c1ccccc1Cl)c1ccccc1Cl | 7 nM | 0.29 | 37 | 123 nM | Ki [10]: 1610 nM; Activity (Nociceptin receptor [8]): 95%; Ratio ED50 [11]: 15; EC50 (Mu-type opioid receptor [5]): 733 nM; EC50 (Nociceptin receptor [6]): 20 nM; ED50 (Rattus norvegicus): 1.7 mg/kg; ED50 (Cavia porcellus [12]): 0.02 mg/kg; ED50 (Cavia porcellus [13]): 0.3 mg/kg; Ki [14]: 3350 nM
14 | NC(=O)[C@]1(c2cccc(F)n2)C[C@H]2CC[C@@H](C1)N2C(c1ccccc1Cl)c1ccccc1Cl | 10 nM | 1.06 | 35 | 348 nM | –
15 | NC(=O)C[C@]1(Cc2ccc(F)cc2)C[C@H]2CC[C@@H](C1)N2C(c1ccccc1Cl)c1ccccc1Cl | 3 nM | 0.35 | 63 | 190 nM | Activity (Cavia porcellus [15]): 38%; Activity (Cavia porcellus [16]): inactive
16 | COC(=O)N[C@]1(c2ccc(Cl)cn2)C[C@H]2CC[C@@H](C1)N2C(c1ccccc1Cl)c1ccccc1Cl | 12 nM | 1.06 | 74 | 961 nM | –
17 | NC(=O)[C@]1(c2ccc(C(F)(F)F)cn2)C[C@H]2CC[C@@H](C1)N2C(c1ccccc1Cl)c1ccccc1Cl | 122 nM | – | 4 | – | –
18 | NC(=O)[C@]1(c2ccncc2)C[C@H]2CC[C@@H](C1)N2C(c1ccccc1Cl)c1ccccc1Cl | 79 nM | – | 20 | 265 nM | –
19 | NC(=O)[C@]1(Cc2ccc(Cl)cc2)C[C@H]2CC[C@@H](C1)N2C(c1ccccc1Cl)c1ccccc1Cl | 10 nM | 0.67 | – | 284 nM | –
20 | NC(=O)[C@]1(c2ccc(Cl)cn2)C[C@H]2CC[C@@H](C1)N2C(c1ccccc1Cl)c1ccccc1Cl | 15 nM | 0.27 | – | 143 nM | Activity (Nociceptin receptor [8]): 145%; EC50 (Mu-type opioid receptor [5]): 368 nM; EC50 (Nociceptin receptor [6]): 44 nM; ED50 (Rattus norvegicus): 2.4 mg/kg; Activity (Mu-type opioid receptor [9]): 97%
